Here are results for four compounds from US4428938A, “Peptides affecting the immune regulation and a process for their preparation” (Richter Gedeon Vegyeszeti Gyar Rt., priority 1981, dated 1984).

Non-standard residues stand in square brackets, D forms with d. Residues, ends and D or L forms follow the SMILES beside them. pGlu = O=C1CC[C@@H](C(=O)O)N1

Experiment [1] concerns lymphocytes of patients suffering from rheumatoid arthritis. Briefly: Active E-rosette test, lymphocytes of rheumatoid arthritis patients. It counts as cell-based, human. As to conditions: for E-rosette forming activity, percentage amount of active lymphocytes: n = 4. Here is the method:
(§1) The active E-rosette test was carried out according to a modified method of Wybran et al [Wybran et al: New Engl. J. Med. 292, 475 (1975)] by the lymphocites of healthy and autoimmune patients (rheumatoid arthritis and systemic lupus erythematosus). To 50 μl of a lymphocyte cell suspension 10^-3 -10^-11 moles/lit. solutions of the test material were added and the mixture was incubated in an atmosphere containing 5.0% of carbon dioxide, at 37° C. for 60 minutes. Thereafter 50 μlit. of a 1% sheep erythrocite suspension were added and the mixture was centrifuged at 1000 r.p.m. for 10 minutes followed by shaking with a modified Gallenkampf-shaker (shaking time: 30 sec, stroke: 8 cm, shaking frequency: 65/min.). The rosettes were fixed with a 0.1% glutaric aldehyde (50 μlit. for each tube, 3 min.). Lymphocytes bonding more than three sheep erythrocite were counted under a microscope and 4×100 cells were evaluated. The separated lymphocytes contain macrophages and polymorphonuclear cells (up to 10%) as an impurity. The number of the cells forming the rosettes was corrected by this value each case.

Experiment [2] has as its system lymphocytes of healthy persons. Kind of experiment: Active E-rosette test, lymphocytes of healthy persons. It counts as cell-based, human. Conditions: for E-rosette forming activity, percentage amount of active lymphocytes: n = 4. The protocol:
as §1

In the case of `CC(C)[C@H](NC(=O)[C@H](CC(N)=O)NC(=O)[C@H](CCCCN)NC(=O)[C@@H](N)CCCNC(=N)N)C(=O)O` [Arg--Lys--Asn--Val, Arg-Lys-Asn-Val] (H-RKNV-OH), the “E-rosette forming activity, percentage amount of active lymphocytes” value in experiment [1] (10^-3 moles/liter) turned out to be 22.3%; in experiment [1] (10^-5 moles/liter), 21.9%; in experiment [1] (10^-7 moles/liter) it was 24.6%; in experiment [1] (10^-9 moles/liter) it was 23.7%; in experiment [1] (10^-11 moles/liter) it was 24.3%; in experiment [2] (10^-3 moles/liter) it was 35.5%. Also, the “E-rosette forming activity, percentage amount of active lymphocytes” value was determined as 39.1% in experiment [2] (10^-5 moles/liter), 35.4% in experiment [2] (10^-9 moles/liter) and 36.7% in experiment [2] (10^-11 moles/liter).
Turning to `CC[C@H](C)[C@H](NC(=O)[C@H](CC(=O)O)NC(=O)[C@H](CCCCN)NC(=O)[C@@H](N)CCCNC(=N)N)C(=O)O` [Arg--Lys--Asp--Ile, Arg-Lys-Asp-Ile] (H-RKDI-OH), the “E-rosette forming activity, percentage amount of active lymphocytes” value is 25.5% in experiment [1] (10^-3 moles/liter); 25.4% in experiment [1] (10^-5 moles/liter); 23.2% in experiment [1] (10^-7 moles/liter); 28.7% in experiment [1] (10^-9 moles/liter); 24.5% in experiment [1] (10^-11 moles/liter); 35.5% in experiment [2] (10^-3 moles/liter). The “E-rosette forming activity, percentage amount of active lymphocytes” value was found to be 32.0% in experiment [2] (10^-5 moles/liter), 34.9% in experiment [2] (10^-7 moles/liter), 35.0% in experiment [2] (10^-9 moles/liter) and 30.7% in experiment [2] (10^-11 moles/liter).
Consider `N=C(N)NCCC[C@H](NC(=O)[C@@H]1CCC(=O)N1)C(=O)N[C@@H](CCCCN)C(=O)N[C@@H](CC(=O)O)C(=O)O` [Glp--Arg--Lys--Asp, Glp-Arg-Lys-Asp] ([pGlu]RKD-OH), for which the “E-rosette forming activity, percentage amount of active lymphocytes” value in experiment [1] (10^-3 moles/liter) is listed as 20.6%; in experiment [1] (10^-5 moles/liter), 18.7%; in experiment [1] (10^-7 moles/liter) it was 19.5%; in experiment [1] (10^-9 moles/liter), 19.7%; in experiment [1] (10^-11 moles/liter) it was 18.4%; in experiment [2] (10^-3 moles/liter) it was 29.1%. Further, the “E-rosette forming activity, percentage amount of active lymphocytes” value amounted to 33.8% in experiment [2] (10^-5 moles/liter), 35.1% in experiment [2] (10^-7 moles/liter), 26.6% in experiment [2] (10^-9 moles/liter) and 38.1% in experiment [2] (10^-11 moles/liter). Further, the “Effect on E-rosette forming activity (in words)” value in experiment [2] (10^-11 moles/lit.) is reported as “stimulating effect”.
On to `CC(C)[C@H](NC(=O)[C@H](CC(=O)O)NC(=O)[C@H](CCCNC(=N)N)NC(=O)[C@@H](N)CCCCN)C(=O)O` [Lys--Arg--Asp--Val, Lys-Arg-Asp-Val] (H-KRDV-OH), for which the “E-rosette forming activity, percentage amount of active lymphocytes” value in experiment [1] (10^-3 moles/liter) stood at 23.6%; in experiment [1] (10^-5 moles/liter), 25.8%; in experiment [1] (10^-7 moles/liter) it was 21.2%; in experiment [1] (10^-9 moles/liter), 25.7%; in experiment [1] (10^-11 moles/liter), 26.6%; in experiment [2] (10^-3 moles/liter), 31.5%. Further, the “E-rosette forming activity, percentage amount of active lymphocytes” value was determined as 25.6% in experiment [2] (10^-5 moles/liter), 30.0% in experiment [2] (10^-7 moles/liter), 29.1% in experiment [2] (10^-9 moles/liter) and 32.9% in experiment [2] (10^-11 moles/liter). The “Effect on E-rosette forming activity (in words)” value in experiment [1] (10^-9 moles/lit.) is reported as “significantly stimulated”; in experiment [1] (10^-11 moles/lit.), “stimulating effect”.
